According to patent publication US20230382925A1, “MODULATORS OF CYSTIC FIBROSIS TRANSMEMBRANE CONDUCTANCE REGULATOR” (VERTEX PHARMACEUTICALS INCORPORATED, priority 2020, published 2023):

Experiments:
Format in all cases: cell-based
CFTR [1] = target: T1, CFTR (Homo sapiens, UniProt P13569, DEL508-508); test: HBE assay: Ussing chamber assay of CFTR-mediated short-circuit currents (F508del/MF-HBE, with 1 μM Ivacaftor); settings: F508del/MF-HBE cells, 18-24 hours, 20% human serum; for HBE Activity at 10 μM: single fixed concentration of 10 μM with 1 μM Ivacaftor; for EC50: range of concentrations with 1 μM Ivacaftor; for HBE Max Activity: with 1 μM Ivacaftor, compared to known Vertex corrector with 18 μM Tezacaftor and 1 μM Ivacaftor
T1 construct: human bronchial epithelial (HBE) cells derived from CF subjects heterozygous for F508del; endogenous in cells; host or cells: primary human bronchial epithelial cells from CF subjects (F508del/MF-HBE)
Description: 1. Ussing Chamber Assay of CFTR-mediated short-circuit currents
Ussing chamber experiments were performed using human bronchial epithelial (HBE) cells derived from CF subjects heterozygous for F508del and a minimal function CFTR mutation (F508del/MF-HBE) and cultured as previously described (Neuberger T, Burton B, Clark H, Van Goor F Methods Mol Biol 2011:741:39-54). After four days the apical media was removed, and the cells were grown at an air liquid interface for >14 days prior to use.
To isolate the CFTR-mediated short-circuit (ISC) current, F508del/MF-HBE grown on Costar® Snapwell™ cell culture inserts were mounted in an Ussing chamber and the transepithelial ISC was measured under voltage-clamp recording conditions (Vhold=0 mV) at 37° C. The basolateral solution contained (in mM) 145 NaCl, 0.83 K2HPO4, 3.3 KH2PO4, 1.2 MgCl2, 1.2 CaCl2), 10 Glucose, 10 HEPES (pH adjusted to 7.4 with NaOH) and the apical solution contained (in mM) 145 NaGluconate, 1.2 MgCl2, 1.2 CaCl2), 10 glucose, 10 HEPES (pH adjusted to 7.4 with NaOH) and 30 μM amiloride to block the epithelial sodium channel. Forskolin (20 μM) was added to the apical surface to activate CFTR, followed by apical addition of a CFTR inhibitor cocktail consisting of BPO, GlyH-101, and CFTR inhibitor 172 (each at 20 μM final assay concentration) to specifically isolate CFTR currents. The CFTR-mediated ISC (μA/cm^2) for each condition was determined from the peak forskolin response to the steady-state current following inhibition.
2. Identification of Corrector Compounds
The activity of the CFTR corrector compounds on the CFTR-mediated ISC was determined in Ussing chamber studies as described above. The F508del/MF-HBE cell cultures were either incubated with the corrector compounds at a range of concentrations in combination with 1 μM Ivacaftor or were incubated with the corrector compounds at a single fixed concentration of 10 μM in combination with 1 μM Ivacaftor for 18-24 hours at 37° C. and in the presence of 20% human serum. The concentration of corrector compounds with 1 μM Ivacaftor during the 18-24 hours incubations was kept constant throughout the Ussing chamber measurement of the CFTR-mediated ISC to ensure compounds were present throughout the entire experiment.

CFTR [2] = target: T2, CFTR (Homo sapiens, UniProt P13569); test: Membrane Potential Dye, Enteroid Assay A; settings: for EC50: read-out: Ent. A EC50
Summary of the method: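 Primary human intestinal enteroid cells exposed to compound for 18–24 hours at 37 °C, then loaded 25 min with methyl oxonol membrane potential dye plus CaCC inhibitors. Chloride transport triggered in chloride-free buffer with 10 μM forskolin, 100 μM IBMX and 300 nM Compound III, fluorescence read 15 min; % Activity relative to a triple-combination corrector/potentiator control.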

CFTR [3] = target: T2, CFTR; test: Membrane Potential Dye, Enteroid Assay B; settings: for EC50: read-out: Ent. B EC50
Summary of the method: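 Activity given as % of a triple-combination reference (1 μM and 3 μM correctors, 300 nM acute potentiator). Enteroids were preincubated 18-24 h with compound; chloride efflux then measured 15 min by methyl oxonol fluorescence after forskolin/IBMX/Compound III stimulation in chloride-free buffer containing CaCCinh-A01 and Chicago Sky Blue.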

T1 sequence (P13569 with tags, fused parts or gaps DEL508-508): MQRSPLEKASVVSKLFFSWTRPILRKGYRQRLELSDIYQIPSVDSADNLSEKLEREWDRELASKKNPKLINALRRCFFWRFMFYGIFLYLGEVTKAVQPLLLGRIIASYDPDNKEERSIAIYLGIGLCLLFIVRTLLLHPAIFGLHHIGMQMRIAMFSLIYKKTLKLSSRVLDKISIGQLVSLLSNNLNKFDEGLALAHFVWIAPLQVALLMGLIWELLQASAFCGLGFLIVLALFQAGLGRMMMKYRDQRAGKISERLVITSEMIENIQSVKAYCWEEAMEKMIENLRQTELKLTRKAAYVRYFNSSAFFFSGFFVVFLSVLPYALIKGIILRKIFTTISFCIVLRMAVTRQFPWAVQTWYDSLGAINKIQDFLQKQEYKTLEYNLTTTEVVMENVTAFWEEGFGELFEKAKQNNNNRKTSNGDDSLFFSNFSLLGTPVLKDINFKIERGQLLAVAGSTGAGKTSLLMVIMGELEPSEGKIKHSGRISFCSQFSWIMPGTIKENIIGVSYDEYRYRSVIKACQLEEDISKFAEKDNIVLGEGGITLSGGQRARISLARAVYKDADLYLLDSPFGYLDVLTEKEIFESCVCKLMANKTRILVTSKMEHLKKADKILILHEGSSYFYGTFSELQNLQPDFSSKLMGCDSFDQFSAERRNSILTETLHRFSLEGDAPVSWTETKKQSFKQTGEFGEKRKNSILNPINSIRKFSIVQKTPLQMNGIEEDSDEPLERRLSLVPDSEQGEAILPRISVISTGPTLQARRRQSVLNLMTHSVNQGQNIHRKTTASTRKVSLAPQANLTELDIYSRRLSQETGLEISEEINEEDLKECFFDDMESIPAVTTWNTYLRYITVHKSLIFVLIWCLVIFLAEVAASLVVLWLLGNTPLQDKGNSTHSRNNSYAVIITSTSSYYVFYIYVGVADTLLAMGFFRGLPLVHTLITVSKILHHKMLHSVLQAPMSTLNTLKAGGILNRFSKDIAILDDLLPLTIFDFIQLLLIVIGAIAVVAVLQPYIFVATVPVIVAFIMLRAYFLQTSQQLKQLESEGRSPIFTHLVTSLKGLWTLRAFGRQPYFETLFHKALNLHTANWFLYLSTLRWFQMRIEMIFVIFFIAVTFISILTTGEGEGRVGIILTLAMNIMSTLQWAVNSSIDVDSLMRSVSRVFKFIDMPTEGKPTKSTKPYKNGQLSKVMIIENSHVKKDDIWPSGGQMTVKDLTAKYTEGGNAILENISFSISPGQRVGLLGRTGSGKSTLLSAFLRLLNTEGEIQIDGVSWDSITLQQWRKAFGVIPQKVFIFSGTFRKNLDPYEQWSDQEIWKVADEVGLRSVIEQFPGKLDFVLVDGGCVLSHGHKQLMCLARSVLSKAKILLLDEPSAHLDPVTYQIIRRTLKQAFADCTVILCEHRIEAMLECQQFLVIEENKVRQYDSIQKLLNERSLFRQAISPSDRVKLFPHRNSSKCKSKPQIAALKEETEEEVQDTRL
T2 sequence (P13569 with tags, fused parts or gaps DEL508-508): as above

## Cc1cccc(C)c1-c1cc2nc(n1)NS(=O)(=O)c1cccc(c1)C(=O)N(C1CC3(CCCCN3C(=O)CO)C1)[C@H](CC(C)(C)C)CO2 (stereo in doubt) [Compound 204]
CFTR [1]
  HBE Activity at 10 μM: +++ (+++ is >60%)

## Cc1cccc(C)c1-c1cc2nc(n1)NS(=O)(=O)c1cccc(c1)C(=O)N(C1CC(N3C[C@@H](C)O[C@@H](C)C3)C1)[C@H](CC(C)(C)C)CO2 (stereo in doubt) [Compound 434]
CFTR [1]
  HBE Activity at 10 μM: +++ (+++ is >60%)

## Cc1cccc(C)c1-c1cc2nc(n1)NS(=O)(=O)c1cccc(c1)C(=O)N(C1CC3(CCN(c4ccccn4)CC3)C1)[C@H](CC(C)(C)C)CO2 [Compound 350]
CFTR [1]
  EC50: < 1 µM
  HBE Max Activity: +++ (+++ is >60%)

## Cc1cccc(C)c1-c1cc2nc(n1)NS(=O)(=O)c1cccc(c1)C(=O)N(C1CC3(CCCCN3C(=O)CO)C1)[C@H](CC(C)(C)C)CO2 (stereo in doubt) [Compound 203]
CFTR [1]
  HBE Activity at 10 μM: +++ (+++ is >60%)

## Cc1cccc(C)c1-c1cc2nc(n1)NS(=O)(=O)c1cccc(c1)C(=O)N(c1cnn(CC(=O)OC(C)(C)C)c1)[C@H](CC(C)(C)C)CO2 [Compound 427]
CFTR [1]
  EC50: < 1 µM
  HBE Max Activity: +++ (+++ is >60%)

## Cc1cccc(C)c1-c1cc2nc(n1)NS(=O)(=O)c1cccc(c1)C(=O)N([C@H]1C[C@](C)(O)C1)[C@H](CC(C)(C)C)CO2 (single isomer, unassigned) [Compound 139]
CFTR [1]
  EC50: < 1 µM
  HBE Max Activity: +++ (+++ is >60%)

## Cc1cccc(C)c1-c1cc2nc(n1)NS(=O)(=O)c1cccc(c1)C(=O)N([C@H]1C[C@@]3(CCCN(C(=O)CO)C3)C1)[C@H](CC(C)(C)C)CO2 (single isomer, unassigned) [Compound 145]
CFTR [1]
  EC50: < 1 µM
  HBE Max Activity: +++ (+++ is >60%)

## Cc1cccc(C)c1-c1cc2nc(n1)NS(=O)(=O)c1cccc(c1)C(=O)N([C@H]1C[C@@]3(C[C@H](NCCC(F)(F)F)C3)C1)[C@H](CC1(C(F)(F)F)CC1)CO2 (stereo partly drawn) [Compound 218]
CFTR [1]
  EC50: < 1 µM
  HBE Max Activity: +++ (+++ is >60%)

## Cc1cccc(C)c1-c1cc2nc(n1)NS(=O)(=O)c1cccc(c1)C(=O)N(c1cnn(CC(N)=O)c1)[C@H](CC(C)(C)C)CO2 [Compound 426]
CFTR [1]
  EC50: 1 to 3 µM
  HBE Max Activity: +++ (+++ is >60%)

## Cc1cccc(C)c1-c1cc2nc(n1)NS(=O)(=O)c1cccc(c1)C(=O)N([C@H]1C[C@@]3(CCCN(C(=O)CO)C3)C1)[C@H](CC(C)(C)C)CO2 (single isomer, unassigned) [Compound 144]
CFTR [1]
  EC50: < 1 µM
  HBE Max Activity: +++ (+++ is >60%)

## Cc1cccc(C)c1-c1cc2nc(n1)NS(=O)(=O)c1cccc(c1)C(=O)N(C1CC3(CC(N4CCOCC4)C3)C1)[C@H](CC(C)(C)C)CO2 (stereo partly drawn) [Compound 433]
CFTR [1]
  EC50: < 1 µM
  HBE Max Activity: +++ (+++ is >60%)

## Cc1cccc(C)c1-c1cc2nc(n1)NS(=O)(=O)c1cccc(c1)C(=O)N(C1CC3(CC(N4C[C@@H](C)O[C@@H](C)C4)C3)C1)[C@H](CC(C)(C)C)CO2 (single isomer, unassigned) [Compound 87]
CFTR [1]
  EC50: < 1 µM
  HBE Max Activity: +++ (+++ is >60%)

## Cc1cccc(C)c1-c1cc2nc(n1)NS(=O)(=O)c1cccc(c1)C(=O)N([C@H]1C[C@@H](N3CCOCC3)C1)[C@H](CC(C)(C)C)CO2 [Compound 178, (11R)-6-(2,6-Dimethylphenyl)-11-(2,2-dimethylpropyl)-12-(3-morpholinocyclobutyl)-2,2-dioxo-9-oxa-2λ^6-thia-3,5,12,19-tetrazatricyclo[12.3.1.14,8]nonadeca-1(18),4(19),5,7,14,16-hexaen-13-one]
CFTR [1]
  EC50: < 1 µM
  HBE Max Activity: +++ (+++ is >60%)

## Cc1cccc(C)c1-c1cc2nc(n1)NS(=O)(=O)c1cccc(c1)C(=O)N(C1CC3(C1)CC(O)(Cc1ccccc1)C3)[C@H](CC(C)(C)C)CO2 (stereo in doubt) [Compound 430]
CFTR [1]
  EC50: < 1 µM
  HBE Max Activity: +++ (+++ is >60%)

## Cc1cccc(C)c1-c1cc2nc(n1)NS(=O)(=O)c1cccc(c1)C(=O)N([C@H]1C[C@@]3(C[C@H](N(C)CC(F)(F)F)C3)C1)[C@H](CC1(C(F)(F)F)CC1)CO2 (stereo partly drawn) [Compound 221]
CFTR [1]
  EC50: < 1 µM
  HBE Max Activity: +++ (+++ is >60%)

## Cc1cccc(C)c1-c1cc2nc(n1)NS(=O)(=O)c1cccc(c1)C(=O)N(C1CC3(CCN(C)CC3)C1)[C@@H]1CN(C3CC4(CCCCC4)C3)C[C@H]1O2 (stereo partly drawn) [Compound 473]
CFTR [1]
  HBE Activity at 10 μM: +++ (+++ is >60%)

## Cc1cccc(C)c1-c1cc2nc(n1)NS(=O)(=O)c1cccc(c1)C(=O)N(C1CC3(CC(N4C[C@@H](C)O[C@@H](C)C4)C3)C1)[C@H](CC(C)(C)C)CO2 (single isomer, unassigned) [Compound 86]
CFTR [1]
  EC50: < 1 µM
  HBE Max Activity: +++ (+++ is >60%)

## Cc1cccc(C)c1-c1cc2nc(n1)NS(=O)(=O)c1cccc(c1)C(=O)N(C1CC3(CCN(CCC(F)(F)F)CC3)C1)[C@H](CC(C)C)CO2 [Compound 20, (11R)-6-(2,6-Dimethylphenyl)-11-isobutyl-2,2-dioxo-12-[7-(3,3,3-trifluoropropyl)-7-azaspiro[3.5]nonan-2-yl]-9-oxa-2λ^6-thia-3,5,12,19-tetrazatricyclo[12.3.1.14,8]nonadeca-1(18),4(19),5,7,14,16-hexaen-13-one]
CFTR [2]
  Ent. A Max Activity (%): +++ (+++ is >60%)
  EC50: < 1 µM
CFTR [3]
  Ent. B Max Activity (%): +++ (+++ is >60%)
  EC50: < 1 µM

## Cc1cccc(C)c1-c1cc2nc(n1)NS(=O)(=O)c1cccc(c1)C(=O)N([C@H]1CC3(C[C@H](N(C)C)C3)C1)[C@H](CC(C)C)CO2 (stereo partly drawn) [Compound 313]
CFTR [2]
  Ent. A Max Activity (%): +++ (+++ is >60%)
  EC50: < 1 µM
CFTR [3]
  Ent. B Max Activity (%): +++ (+++ is >60%)
  EC50: < 1 µM

## Cc1cccc(C)c1-c1cc2nc(n1)NS(=O)(=O)c1cccc(c1)C(=O)N(C1CN(C(C)C)C1)[C@H](CC(C)C)CO2 [Compound 319]
CFTR [2]
  Ent. A Max Activity (%): +++ (+++ is >60%)
  EC50: < 1 µM
CFTR [3]
  Ent. B Max Activity (%): +++ (+++ is >60%)
  EC50: < 1 µM

## Cc1cccc(C)c1-c1cc2nc(n1)NS(=O)(=O)c1cccc(c1)C(=O)N(C1CC3(CCN(C)CC3)C1)CC(CC(C)C)(CC(C)C)CO2 (stereo not drawn) [Compound 311]
CFTR [2]
  Ent. A Max Activity (%): +++ (+++ is >60%)
  EC50: < 1 µM
CFTR [3]
  Ent. B Max Activity (%): +++ (+++ is >60%)
  EC50: < 1 µM

## Cc1cccc(C)c1-c1cc2nc(n1)NS(=O)(=O)c1cccc(c1)C(=O)N(C1CC3(CCN(C)CC3)C1)[C@H](CC(C)C)CO2 [Compound 15, (11R)-6-(2,6-Dimethylphenyl)-11-isobutyl-12-(7-methyl-7-azaspiro[3.5]nonan-2-yl)-2,2-dioxo-9-oxa-2λ^6-thia-3,5,12,19-tetrazatricyclo[12.3.1.14,8]nonadeca-1(18),4(19),5,7,14,16-hexaen-13-one]
CFTR [2]
  Ent. A Max Activity (%): +++ (+++ is >60%)
  EC50: < 1 µM
CFTR [3]
  Ent. B Max Activity (%): +++ (+++ is >60%)
  EC50: < 1 µM

## Cc1cccc(C)c1-c1cc2nc(n1)NS(=O)(=O)c1cccc(c1)C(=O)N(C1CN(C3CC4(CC4)C3)C1)[C@H](CC(C)C)CO2 [Compound 101, (11R)-6-(2,6-Dimethylphenyl)-11-isobutyl-2,2-dioxo-12-(1-spiro[2.3]hexan-5-ylazetidin-3-yl)-9-oxa-2λ^6-thia-3,5,12,19-tetrazatricyclo[12.3.1.14,8]nonadeca-1(18),4(19),5,7,14,16-hexaen-13-one]
CFTR [2]
  Ent. A Max Activity (%): +++ (+++ is >60%)
  EC50: < 1 µM
CFTR [3]
  Ent. B Max Activity (%): +++ (+++ is >60%)
  EC50: < 1 µM
